Assay type in all cases: biochemical
One experiment concerns the target PLK1 (Homo sapiens, UniProt P53350). Put plainly: PLK TR-FRET peptide assay, PLK1. Conditions: GST-PLK1, 60 min reaction.
For a further experiment, the target named is PLK2 (Homo sapiens, UniProt Q9NYY3). The experiment is described as follows: PLK TR-FRET peptide assay, PLK2. The following applies: PLK TR-FRET peptide assay, GST-PLK2, 60 min reaction; read-out: Plk2 IC50.
The target in another experiment is PLK3 (Homo sapiens, UniProt Q9H4B4). The experiment is described as follows: PLK TR-FRET peptide assay, PLK3. The following applies: GST-PLK3, 15 min reaction, read-out: Plk3 IC50.
PLK3, sequence (Q9H4B4 whole entry): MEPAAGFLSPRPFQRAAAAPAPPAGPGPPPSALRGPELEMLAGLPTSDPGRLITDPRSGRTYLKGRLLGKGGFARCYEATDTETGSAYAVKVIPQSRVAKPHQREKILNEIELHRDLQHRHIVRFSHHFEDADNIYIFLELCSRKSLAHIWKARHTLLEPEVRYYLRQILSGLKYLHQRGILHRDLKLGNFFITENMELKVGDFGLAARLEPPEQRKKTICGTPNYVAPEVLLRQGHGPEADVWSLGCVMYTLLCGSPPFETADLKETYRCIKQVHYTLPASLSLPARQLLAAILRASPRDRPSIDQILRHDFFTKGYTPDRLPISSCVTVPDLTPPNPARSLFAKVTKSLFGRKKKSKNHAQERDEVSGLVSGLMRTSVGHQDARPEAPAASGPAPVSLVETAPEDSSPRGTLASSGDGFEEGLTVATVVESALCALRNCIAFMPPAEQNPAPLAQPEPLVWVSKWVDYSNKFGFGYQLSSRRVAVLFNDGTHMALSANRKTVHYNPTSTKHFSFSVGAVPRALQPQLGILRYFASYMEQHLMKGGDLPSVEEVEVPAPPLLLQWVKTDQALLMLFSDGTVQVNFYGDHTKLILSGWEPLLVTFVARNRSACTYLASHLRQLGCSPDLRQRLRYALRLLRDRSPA

Some results are limits rather than exact numbers.

PLK1, sequence (P53350 whole entry): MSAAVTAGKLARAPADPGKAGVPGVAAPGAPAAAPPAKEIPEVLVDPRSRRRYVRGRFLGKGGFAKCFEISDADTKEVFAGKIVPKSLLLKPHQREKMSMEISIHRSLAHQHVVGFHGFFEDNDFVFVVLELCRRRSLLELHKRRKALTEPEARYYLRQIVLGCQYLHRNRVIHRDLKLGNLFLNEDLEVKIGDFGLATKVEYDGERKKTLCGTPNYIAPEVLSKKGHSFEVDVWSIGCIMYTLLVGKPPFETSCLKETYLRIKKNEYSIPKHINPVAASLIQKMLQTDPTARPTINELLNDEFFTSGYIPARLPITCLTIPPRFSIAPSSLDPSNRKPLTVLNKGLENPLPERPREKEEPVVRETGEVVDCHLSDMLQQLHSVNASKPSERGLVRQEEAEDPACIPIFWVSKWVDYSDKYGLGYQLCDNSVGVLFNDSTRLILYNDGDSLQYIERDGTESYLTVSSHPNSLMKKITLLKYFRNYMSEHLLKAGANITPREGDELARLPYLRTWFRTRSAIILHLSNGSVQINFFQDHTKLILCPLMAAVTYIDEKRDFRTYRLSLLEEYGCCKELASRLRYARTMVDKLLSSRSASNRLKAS
PLK2, sequence (Q9NYY3 whole entry): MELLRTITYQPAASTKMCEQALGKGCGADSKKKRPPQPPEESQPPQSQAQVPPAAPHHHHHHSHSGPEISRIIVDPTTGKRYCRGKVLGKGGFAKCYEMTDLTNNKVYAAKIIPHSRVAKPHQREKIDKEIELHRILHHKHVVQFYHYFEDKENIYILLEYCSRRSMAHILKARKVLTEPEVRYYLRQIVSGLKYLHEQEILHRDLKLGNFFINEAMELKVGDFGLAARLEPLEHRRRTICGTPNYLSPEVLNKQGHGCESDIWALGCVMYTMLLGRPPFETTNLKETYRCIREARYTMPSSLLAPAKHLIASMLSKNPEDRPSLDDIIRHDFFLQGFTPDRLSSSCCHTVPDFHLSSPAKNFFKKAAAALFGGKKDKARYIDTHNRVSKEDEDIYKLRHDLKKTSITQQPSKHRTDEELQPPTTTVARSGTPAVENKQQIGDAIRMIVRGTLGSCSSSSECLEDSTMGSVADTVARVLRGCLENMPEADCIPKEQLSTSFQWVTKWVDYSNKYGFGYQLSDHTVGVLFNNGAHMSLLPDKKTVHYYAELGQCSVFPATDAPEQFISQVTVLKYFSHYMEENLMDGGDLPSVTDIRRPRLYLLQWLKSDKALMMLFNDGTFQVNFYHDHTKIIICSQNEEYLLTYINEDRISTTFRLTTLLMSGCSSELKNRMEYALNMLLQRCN

In the case of `CC[C@@H]1C(=O)N(C)c2cnc(-n3ccnc3-c3cc(Cl)cc(Cl)c3)nc2N1C(C)C` [Example 185, (R)-2-(2-(3,5-dichlorophenyl)-1H-imidazol-1-yl)-7-ethyl-8-isopropyl-5-methyl-7,8-dihydropteridin-6(5H)-one], the IC50 against PLK1 was 1 to 10 µM; on PLK2, less than 1 µM; at PLK3, 1 to 10 µM.
Regarding `CCC1C(=O)N(C)c2cnc(-n3ccnc3)nc2N1c1ccccc1` (stereo not drawn) [Example 300, 7-ethyl-2-(1H-imidazol-1-yl)-5-methyl-8-phenyl-7,8-dihydropteridin-6(5H)-one], the IC50 at PLK1 was 1 to 10 µM; at PLK2 it was 1 to 10 µM; at PLK3, greater than 50 µM.
As for `CC[C@@H]1C(=O)N(C)c2cnc(-n3ccnc3N3C(=O)CCC3=O)nc2N1C1CCC1` [Example 112, (R)-1-(1-(8-cyclobutyl-7-ethyl-5-methyl-6-oxo-5,6,7,8-tetrahydropteridin-2-yl)-1H-imidazol-2-yl)pyrrolidine-2,5-dione], the IC50 is 10 to 50 µM at PLK1, 10 to 50 µM at PLK2 and greater than 50 µM at PLK3.
For the molecule `CC[C@@H]1C(=O)N(C)c2cnc(-c3cn[nH]c3-c3ccccn3)nc2N1C(C)C` [Example 313, (R)-7-ethyl-8-isopropyl-5-methyl-2-(5-(pyridin-2-yl)-1H-pyrazol-4-yl)-7,8-dihydropteridin-6(5H)-one], the results for the IC50 against PLK1, on PLK2 and at PLK3 were 1 to 10 µM, less than 1 µM and 1 to 10 µM, respectively.
With `CC[C@]1(C)C(=O)N(C)c2cnc(-c3cn[nH]c3-c3nccs3)nc2N1CCC(F)(F)F` [Example 310, (R)-7-ethyl-5,7-dimethyl-2-(5-(thiazol-2-yl)-1H-pyrazol-4-yl)-8-(3,3,3-trifluoropropyl)-7,8-dihydropteridin-6(5H)-one], the IC50 at PLK1 is less than 1 µM; on PLK2, less than 1 µM; at PLK3, greater than 50 µM.
`CC[C@@H]1C(=O)N(C)c2cnc(-c3ccncc3CN)nc2N1C1CCCC1` [Example 105, (R)-2-(3-(aminomethyl)pyridin-4-yl)-8-cyclopentyl-7-ethyl-5-methyl-7,8-dihydropteridin-6(5H)-one]: the results for the IC50 against PLK1, on PLK2 and at PLK3 were 10 to 50 µM, 10 to 50 µM and greater than 50 µM, respectively.
For `CC[C@@H]1C(=O)N(C)c2cnc(-c3cccc(C(=O)N(C)C)c3)nc2N1C1CCCC1` [Example 57, (R)-3-(8-cyclopentyl-7-ethyl-5-methyl-6-oxo-5,6,7,8-tetrahydropteridin-2-yl)-N,N-dimethylbenzamide], the IC50 on PLK1 is 1 to 10 µM; at PLK2, 1 to 10 µM; at PLK3, greater than 50 µM.
For `CC[C@@H]1C(=O)N(C)c2cnc(-c3nccs3)nc2N1C1CCCC1` [Example 330, (R)-8-cyclopentyl-7-ethyl-5-methyl-2-(thiazol-2-yl)-7,8-dihydropteridin-6(5H)-one], the IC50 on PLK1 is 1 to 10 µM; on PLK2, less than 1 µM; at PLK3, 10 to 50 µM.
For `CC[C@@]12CCCN1c1nc(-n3ccnc3-c3cc(F)cc(F)c3)ncc1N(C)C2=O` [Example 226, (S)-2-(2-(3,5-difluorophenyl)-1H-imidazol-1-yl)-6a-ethyl-5-methyl-6a,7,8,9-tetrahydropyrrolo[2,1-h]pteridin-6(5H)-one] the same measures were 10 to 50 µM, less than 1 µM and 10 to 50 µM.
As to `CN1C(=O)[C@H]2CCCN2c2nc(-n3ccnc3)ncc21` [Example 33, (R)-2-(1H-imidazol-1-yl)-5-methyl-6a,7,8,9-tetrahydropyrrolo[2,1-h]pteridin-6(5H)-one], the values for the IC50 against PLK1, at PLK2 and on PLK3 were greater than 50 µM, 10 to 50 µM and greater than 50 µM, respectively.
`CC[C@@H]1C(=O)N(C)c2cnc(-c3ccncc3CNC(=O)OC(C)(C)C)nc2N1C(C)C` [Example 107, (R)-tert-butyl (4-(7-ethyl-8-isopropyl-5-methyl-6-oxo-5,6,7,8-tetrahydropteridin-2-yl)pyridin-3-yl)methylcarbamate]: the IC50 at PLK1, at PLK2 and on PLK3 was greater than 50 µM each time.
For `CC[C@@H]1C(=O)N(C)c2cnc(-c3ccncc3-c3ccccc3)nc2N1C1CC1` [Example 142, (R)-8-cyclopropyl-7-ethyl-5-methyl-2-(3-phenylpyridin-4-yl)-7,8-dihydropteridin-6(5H)-one], the IC50 on PLK1 is 10 to 50 µM; on PLK2 it was less than 1 µM; at PLK3, 10 to 50 µM.
On to `CC[C@@H]1C(=O)N(C)c2cnc(-n3ccnc3C3CC3)nc2N1C1CCCC1` [Example 288, (R)-8-cyclopentyl-2-(2-cyclopropyl-1H-imidazol-1-yl)-7-ethyl-5-methyl-7,8-dihydropteridin-6(5H)-one], for which the IC50 was 1 to 10 µM at PLK1, less than 1 µM at PLK2 and 1 to 10 µM at PLK3.
Consider `CCC1C(=O)N(C)c2cnc(-n3ccnc3)nc2N1c1cccc(-n2cccn2)c1` (stereo not drawn) [Example 336, 8-(3-(1H-pyrazol-1-yl)phenyl)-7-ethyl-2-(1H-imidazol-1-yl)-5-methyl-7,8-dihydropteridin-6(5H)-one], for which the IC50 was 10 to 50 µM against PLK1, 10 to 50 µM at PLK2 and greater than 50 µM at PLK3.
Regarding `CC[C@@H]1C(=O)N(C)c2cnc(-c3ccncc3NC(=O)OC)nc2N1C(C)C` [Example 117, (R)-methyl 4-(7-ethyl-8-isopropyl-5-methyl-6-oxo-5,6,7,8-tetrahydropteridin-2-yl)pyridin-3-ylcarbamate], the figures for the IC50 on PLK1, on PLK2 and at PLK3 were 1 to 10 µM, 1 to 10 µM and greater than 50 µM, respectively.
As for `CC[C@@]12CCCN1c1nc(-n3ccnc3-c3cccc(F)c3)ncc1N(C)C2=O` [Example 225, (S)-6a-ethyl-2-(2-(3-fluorophenyl)-1H-imidazol-1-yl)-5-methyl-6a,7,8,9-tetrahydropyrrolo[2,1-h]pteridin-6(5H)-one], the IC50 is 1 to 10 µM at PLK1, less than 1 µM on PLK2 and 10 to 50 µM at PLK3.
In the case of `CC[C@@H]1C(=O)N(C)c2cnc(-n3ccnc3-c3cccc(Cl)c3)nc2N1C1CCOC1` (stereo partly drawn) [Example 211, (7R)-2-(2-(3-chlorophenyl)-1H-imidazol-1-yl)-7-ethyl-5-methyl-8-(tetrahydrofuran-3-yl)-7,8-dihydropteridin-6(5H)-one], the IC50 on PLK1 is less than 1 µM; at PLK2 it was less than 1 µM; on PLK3, 1 to 10 µM.
`CC[C@@H]1C(=O)N(C)c2cnc(-n3ccnc3C3CCOCC3)nc2N1C1CCCC1` [Example 90, (R)-8-cyclopentyl-7-ethyl-5-methyl-2-(2-(tetrahydro-2H-pyran-4-yl)-1H-imidazol-1-yl)-7,8-dihydropteridin-6(5H)-one]: the IC50 at PLK1 is 1 to 10 µM; at PLK2, 1 to 10 µM; at PLK3 it was 10 to 50 µM.
`CN1C(=O)[C@H](CC(F)(F)F)N(CCC(F)(F)F)c2nc(-n3ccnc3-c3ccc(F)cc3F)ncc21` [Example 294, (S)-2-(2-(2,4-difluorophenyl)-1H-imidazol-1-yl)-5-methyl-7-(2,2,2-trifluoroethyl)-8-(3,3,3-trifluoropropyl)-7,8-dihydropteridin-6(5H)-one]: the IC50 was greater than 50 µM against PLK1, 10 to 50 µM at PLK2 and greater than 50 µM at PLK3.
For `[2H]C([2H])([2H])N1C(=O)C(C([2H])([2H])C([2H])([2H])[2H])N(C([2H])(C([2H])([2H])[2H])C([2H])([2H])[2H])c2nc(-n3ccnc3-c3cccc(C(F)(F)F)c3)ncc21` (stereo not drawn) [Example 172, 7-ethyl-8-isopropyl-5-methyl-2-(2-(3-(trifluoromethyl)phenyl)-1H-imidazol-1-yl)-7,8-dihydropteridin-6(5H)-one], the IC50 against PLK1 was 1 to 10 µM; at PLK2 it was less than 1 µM; on PLK3, greater than 50 µM.
For `CC[C@@H]1C(=O)N(C)c2cnc(-c3ccncc3CNC(=O)c3ccccc3)nc2N1C1CCCC1` [Example 123, (R)—N-((4-(8-cyclopentyl-7-ethyl-5-methyl-6-oxo-5,6,7,8-tetrahydropteridin-2-yl)pyridin-3-yl)methyl)benzamide] the same measures were 10 to 50 µM, 10 to 50 µM and greater than 50 µM.
Regarding `CC[C@@H]1C(=O)N(C)c2cnc(-n3ccnc3-c3ccccc3F)nc2N1C1CCC1` [Example 49, (R)-8-cyclobutyl-7-ethyl-2-(2-(2-fluorophenyl)-1H-imidazol-1-yl)-5-methyl-7,8-dihydropteridin-6(5H)-one], the IC50 against PLK1 was less than 1 µM; at PLK2, less than 1 µM; at PLK3 it was 1 to 10 µM.
In the case of `CC[C@@H]1C(=O)N(C)c2cnc(-c3cn[nH]c3-c3cscn3)nc2N1C(C)C` [Example 320, (R)-7-ethyl-8-isopropyl-5-methyl-2-(5-(thiazol-4-yl)-1H-pyrazol-4-yl)-7,8-dihydropteridin-6(5H)-one], the IC50 is 1 to 10 µM against PLK1, less than 1 µM on PLK2 and 1 to 10 µM on PLK3.
`CCC1C(=O)N(C)c2cnc(-n3ccnc3-c3ccc(F)cc3)nc2N1c1cccc(-c2cncnc2)c1` (stereo not drawn) [Example 346, 7-ethyl-2-(2-(4-fluorophenyl)-1H-imidazol-1-yl)-5-methyl-8-(3-(pyrimidin-5-yl)phenyl)-7,8-dihydropteridin-6(5H)-one]: the IC50 is 1 to 10 µM on PLK1, less than 1 µM at PLK2 and 1 to 10 µM on PLK3.
As for `CN1C(=O)[C@H](CC(F)(F)F)N(CCC(F)(F)F)c2nc(-n3ccnc3)ncc21` [Example 302, (S)-2-(1H-imidazol-1-yl)-5-methyl-7-(2,2,2-trifluoroethyl)-8-(3,3,3-trifluoropropyl)-7,8-dihydropteridin-6(5H)-one], the IC50 is greater than 50 µM against PLK1, 10 to 50 µM at PLK2 and greater than 50 µM at PLK3.

(Values after patent US8541418B2, “Inhibitors of polo-like kinase” (Elan Pharmaceutical, Inc., priority 2009, dated 2013).)
